Results as given in US5756512A, “Treatment of non-small cell lung carcinoma” (SmithKline Beecham Corporation, priority 1996, dated 1998).

Key:
[1] = qualitative statement; cited from earlier work
[2] = system: non-small cell lung carcinoma; test: clinical response, second patient with non-small cell lung carcinoma; type: in vivo, human
[3] = system: DNA topoisomerase I; details: background statement; cited from earlier work
[4] = system: non-small cell lung carcinoma; test: clinical response, patient with metastatic non-small cell lung carcinoma, tumor size by CAT scan; type: in vivo, human; details: for response to pretreatment: pretreatment with VP-16 (etoposide) and cisplatin, same patient before topotecan
Experimental: One human patient with metastatic non-small cell lung carcinoma, who was refractory to pretreatment with VP-16 (etoposide) and cisplatin, received a course of therapy comprising intravenous administration of 1.5 mg of topotecan/m^2 of body surface area per day for five consecutive days. This course of therapy was repeated at least five more times at twenty-one day intervals (from the date of initiation of therapy) for a total of at least […] treatments. Tumor size regression was evaluated by CAT (computerized axial tomography) scan.

[5] = stability of diluted topotecan solutions in plastic bags at room temperature (percentage of initial topotecan remaining); type: physicochemical; details: 0 hrs
Experimental: Stability--Shelf life surveillance of the intact vials is ongoing. Because the single-use lyophilized dosage form contains no antibacterial preservatives, it is advised that the reconstituted solution be discarded eight hours after initial entry into the vial. Further dilutions of the reconstituted solution to concentrations of 0.02 mg/ml and 0.1 mg.ml in 5% Dextrose Injection, USP, ("D5W") or 0.9% Sodium Chloride Injection, USP, ("NS") in plastic bags stored at room temperature yielded the following stability results:
PERCENTAGE OF INITIAL TOPOTECAN REMAINING IN SOLUTION

SMILES: CC[C@@]1(O)C(=O)OCc2c1cc1n(c2=O)Cc2cc3c(CN(C)C)c(O)ccc3nc2-1 [topotecan, (S)-9-dimethylaminomethyl-10-hydroxycamptothecin]
- water solubility [1]: water-soluble
- response (measurable tumor size regression) ([2]; one patient, prior radiation and ipomeanol, at least one course i.v. 1.5 mg/m^2 per day, five consecutive days): a temporary response (measurable tumor size regression) was observed
- inhibition of topoisomerase I [3]: specific inhibitor of DNA topoisomerase I
- tumor size regression (CAT scan) ([4]; one patient refractory to VP-16 and cisplatin, i.v. 1.5 mg/m^2 per day, five consecutive days, repeated at twenty-one day intervals, after six treatment regimen): a complete regression of the disease was observed
- Percentage of initial topotecan remaining in solution ([5]; D5W, 0.02 mg/ml): 100.00%
- Percentage of initial topotecan remaining in solution ([5]; D5W, 0.1 mg/ml): 100.00%
- Percentage of initial topotecan remaining in solution ([5]; NS, 0.02 mg/ml): 100.00%
- Percentage of initial topotecan remaining in solution ([5]; NS, 0.1 mg/ml): 100.00%

SMILES: CC[C@@]1(O)C(=O)OCc2c1cc1n(c2=O)Cc2cc3ccccc3nc2-1 [camptothecin, reference compound]
- inhibition of topoisomerase I [3]: known to inhibit topoisomerase I

SMILES: CC(O)CCC(=O)c1ccoc1 (stereo not drawn) [ipomeanol, reference compound]
- response to previous ipomeanol ([2]; same patient before topotecan): failed to respond

SMILES: COc1cc([C@@H]2c3cc4c(cc3[C@@H](O[C@@H]3O[C@@H]5CO[C@@H](C)O[C@H]5[C@H](O)[C@H]3O)[C@H]3COC(=O)[C@H]23)OCO4)cc(OC)c1O [etoposide]
- response to pretreatment [4]: refractory

SMILES: N.N.[Cl][Pt][Cl] [cisplatin]
- response to pretreatment [4]: refractory
